Laboratory results reported in patent US4563527A, “Amidine compounds” (Torii & Co., Ltd., priority 1984, dated 1986).
Where two headings read alike, the source gives them in different places.

Experiments:
Trypsin = biological target: T1, Trypsin (Bos taurus, UniProt P00760); assay: Anti-trypsin activity (hydrolysis of TAME); assay type: biochemical; conditions: molar concentration inhibiting 50% of TAME hydrolysis; read-out: ID50 trypsin
T1 sequence (P00760 24-246): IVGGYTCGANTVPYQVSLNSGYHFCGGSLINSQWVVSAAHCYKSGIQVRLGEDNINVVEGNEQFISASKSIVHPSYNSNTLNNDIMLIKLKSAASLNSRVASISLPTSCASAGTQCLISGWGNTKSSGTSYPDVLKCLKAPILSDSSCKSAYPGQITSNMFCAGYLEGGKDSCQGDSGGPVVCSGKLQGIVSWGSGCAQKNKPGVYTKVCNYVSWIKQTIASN
Method: (§1) The anti-trypsin, anti-plasmin, anti-kallikrein and anti-thrombin activities were determined according to the method of Muramatsu et al. [M. Muramatus, T. Onishi, S. Makino, Y. Hayashi and S. Fujii, J. of Biochem., 58, 214 (1965)]. The data summarized in Table 1 are expressed in terms of molar concentration (ID50) of the test compound which inhibits 50% of the activity of each enzyme to hydrolyze TAME (tosylalginine methyl ester). The compound No. corresponds to the compound number shown in Examples.

Plasmin = Plasmin (Homo sapiens, UniProt P00747); assay: Anti-plasmin activity (hydrolysis of TAME); assay type: biochemical; conditions: for IC50: molar concentration inhibiting 50% of TAME hydrolysis, read-out: ID50 plasmin
Sequence of Plasmin (P00747 581-810 limits assumed, species assumed): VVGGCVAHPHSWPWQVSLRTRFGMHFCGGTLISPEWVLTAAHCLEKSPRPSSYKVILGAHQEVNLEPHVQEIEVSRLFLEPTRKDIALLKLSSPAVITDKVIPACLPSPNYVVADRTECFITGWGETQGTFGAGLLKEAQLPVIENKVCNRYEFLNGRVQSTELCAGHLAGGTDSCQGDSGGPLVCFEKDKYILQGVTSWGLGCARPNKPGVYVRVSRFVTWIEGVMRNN
Sequence of Plasmin (P00747 97-580 partner limits assumed, species assumed): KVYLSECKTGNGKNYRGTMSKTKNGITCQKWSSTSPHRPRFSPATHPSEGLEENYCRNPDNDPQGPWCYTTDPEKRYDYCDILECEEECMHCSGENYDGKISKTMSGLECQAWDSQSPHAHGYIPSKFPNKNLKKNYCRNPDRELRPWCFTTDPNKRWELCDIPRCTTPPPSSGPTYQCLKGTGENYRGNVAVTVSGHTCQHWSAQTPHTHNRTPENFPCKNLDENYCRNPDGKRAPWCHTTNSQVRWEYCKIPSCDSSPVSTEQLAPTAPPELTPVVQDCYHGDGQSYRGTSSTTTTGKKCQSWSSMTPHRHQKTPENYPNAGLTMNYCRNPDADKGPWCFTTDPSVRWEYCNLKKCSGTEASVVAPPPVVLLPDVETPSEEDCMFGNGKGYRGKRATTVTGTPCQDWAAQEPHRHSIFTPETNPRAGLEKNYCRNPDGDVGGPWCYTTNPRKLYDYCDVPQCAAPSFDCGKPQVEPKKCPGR
Method: The anti-trypsin, anti-plasmin, anti-kallikrein and anti-thrombin activities were determined according to the method of Muramatsu et al. [M. Muramatus, T. Onishi, S. Makino, Y. Hayashi and S. Fujii, J. of Biochem., 58, 214 (1965)]. […] The compound No. corresponds to the compound number shown in Examples.

Kallikrein = assay: Anti-kallikrein activity (hydrolysis of TAME); assay type: biochemical; conditions: for IC50: molar concentration inhibiting 50% of TAME hydrolysis, read-out: ID50 kallikrein
Method: as §1

Thrombin = Thrombin (Homo sapiens, UniProt P00734); assay: biochemical; conditions: molar concentration inhibiting 50% of TAME hydrolysis; read-out: ID50 thrombin
C1r = biological target: T2, C1r (Homo sapiens, UniProt P00736); assay: biochemical; conditions: read-out: ID50 C1r (Anti-C1 activity)
T2 sequence (P00736 464-705 limits assumed): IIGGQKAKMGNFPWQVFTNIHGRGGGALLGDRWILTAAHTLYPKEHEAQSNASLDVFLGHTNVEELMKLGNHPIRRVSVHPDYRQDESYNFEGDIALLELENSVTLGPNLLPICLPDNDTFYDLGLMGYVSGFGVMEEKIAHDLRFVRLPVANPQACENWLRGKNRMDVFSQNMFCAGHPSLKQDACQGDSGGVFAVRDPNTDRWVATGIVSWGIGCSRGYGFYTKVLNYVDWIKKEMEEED
T2 sequence (P00736 18-463 partner limits assumed): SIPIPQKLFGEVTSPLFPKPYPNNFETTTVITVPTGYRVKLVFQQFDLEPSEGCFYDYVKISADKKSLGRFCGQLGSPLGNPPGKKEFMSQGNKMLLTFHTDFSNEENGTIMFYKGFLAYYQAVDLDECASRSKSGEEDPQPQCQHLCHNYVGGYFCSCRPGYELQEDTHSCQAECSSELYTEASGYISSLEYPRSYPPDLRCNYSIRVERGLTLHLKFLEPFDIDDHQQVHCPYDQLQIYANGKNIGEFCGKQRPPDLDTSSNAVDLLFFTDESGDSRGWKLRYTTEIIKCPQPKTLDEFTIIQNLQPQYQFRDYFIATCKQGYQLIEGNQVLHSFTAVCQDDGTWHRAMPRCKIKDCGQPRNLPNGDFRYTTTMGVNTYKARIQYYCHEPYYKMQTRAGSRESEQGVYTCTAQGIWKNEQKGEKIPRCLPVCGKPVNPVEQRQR

C1s = biological target: T3, C1s (Homo sapiens, UniProt P09871); assay: Anti-C1s activity (hydrolysis of ATEE); assay type: biochemical; conditions: molar concentration inhibiting 50% of ATEE hydrolysis; read-out: ID50 C1s (Anti-C1 activity)
T3 sequence (P09871 438-688 limits assumed): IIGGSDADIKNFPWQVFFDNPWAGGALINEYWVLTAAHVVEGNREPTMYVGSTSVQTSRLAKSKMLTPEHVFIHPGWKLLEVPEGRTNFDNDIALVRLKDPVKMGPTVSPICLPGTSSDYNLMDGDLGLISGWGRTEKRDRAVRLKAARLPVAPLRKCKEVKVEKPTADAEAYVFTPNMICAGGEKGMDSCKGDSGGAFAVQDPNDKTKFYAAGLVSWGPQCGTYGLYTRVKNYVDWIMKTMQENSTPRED
T3 sequence (P09871 16-437 partner limits assumed): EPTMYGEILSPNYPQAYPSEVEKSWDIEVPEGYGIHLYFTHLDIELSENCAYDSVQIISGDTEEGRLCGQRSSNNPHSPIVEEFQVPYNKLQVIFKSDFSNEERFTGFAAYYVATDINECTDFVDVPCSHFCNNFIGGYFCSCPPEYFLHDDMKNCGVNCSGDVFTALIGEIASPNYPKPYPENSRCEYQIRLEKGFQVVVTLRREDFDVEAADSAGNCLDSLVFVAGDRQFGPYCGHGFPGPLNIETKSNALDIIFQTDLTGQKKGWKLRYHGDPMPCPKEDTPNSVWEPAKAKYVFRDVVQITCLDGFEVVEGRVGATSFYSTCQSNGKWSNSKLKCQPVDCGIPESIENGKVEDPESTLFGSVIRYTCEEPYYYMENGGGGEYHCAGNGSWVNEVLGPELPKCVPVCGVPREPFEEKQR
Method: The anti-C1 esterase (C1r, C1s) activity was determined according to the method of Okamura et al. [K. Okamura, M. Muramatsu and B. Fujii, Biochem. Biophys. Acta, 295, 252-257 (1973)]. The inhibition of complement mediated hemolysis was determined according to the method of Baker et al. [B. R. Baker and E. H. Erickson, J. Med. Chem. 12, 408-414 (1969)]. The figures in Table 2 have the following meanings:
C1s: Molar concentration of the test compound which inhibits 50% of the ability of C1s to hydrolyse ATEE (acetyltyrosin ethyl ester) (ID50).

complement = assay: Inhibition of complement mediated hemolysis; assay type: cell-based
Method: The complement mediated hemolysis is widely used as a means to determine the titration of complement. The principle of this method is based on the fact that hemolysis is caused by the activation of complement, when the latter is added to a complex (immune complex) of erythrocytes and the antibody thereof. The degree of hemolysis varies in proportion to the amount of complement added. Therefore, when a known amount of complement admixed with a C1 esterase inhibitor is used, the hemolysis must be suppressed in proportion to the inhibitory activity.
The anti-C1 esterase (C1r, C1s) activity was determined according to the method of Okamura et al. [K. Okamura, M. Muramatsu and B. Fujii, Biochem. Biophys. […] The figures in Table 2 have the following meanings: […]

[1] = molar concentration inhibiting 50% of AAME hydrolysis

SMILES | IC50 (Trypsin) [nM] | IC50 (Plasmin) [nM] | IC50 (Kallikrein) [nM] | IC50 (Thrombin) [nM] | IC50 (C1r; [1]) [nM] | IC50 (C1s) [nM] | Inhibition of complement mediated hemolysis (%) (complement; 1 × 10^-5) | Inhibition of complement mediated hemolysis (%) (complement; 1 × 10^-6) | Inhibition of complement mediated hemolysis (%) (complement; 1 × 10^-7) | inhibition at 10 µM (Plasmin; figure in parentheses, at 1×10^-5 M, TAME, read-out: percentage inhibition of plasmin) [%] | IC50 (C1r) [nM] | percentage inhibition of kallikrein (Kallikrein; figure in parentheses, at 1×10^-5 M, TAME) [%]
N=C(N)c1ccc2cc(OC(=O)c3ccc(CNC(=O)c4cccnc4)o3)ccc2c1 [compound 16] | 1000 | 1000 | 400 | 400 | 400 | 300 | 100 | 100 | 97 | – | – | –
N=C(N)c1ccc2cc(OC(=O)c3ccc(CNC(=O)CCN)o3)ccc2c1 [compound 34] | – | 2000 | 300 | 500 | 500 | 500 | 100 | 100 | 58 | – | – | –
N=C(N)c1ccc2cc(OC(=O)c3ccc(CNC(=O)OCc4ccccc4)o3)ccc2c1 [compound 19] | 200 | 300 | 700 | 200 | 200 | 300 | 97 | 97 | 93 | – | – | –
CN(C)Cc1ccc(C(=O)Oc2ccc3cc(C(=N)N)ccc3c2)o1 [compound 23] | 500 | 2000 | 3000 | 4000 | 3000 | 2000 | 100 | 95 | 76 | – | – | –
N=C(N)c1ccc2cc(OC(=O)c3ccc(CNC(=O)c4cnc5ccccc5c4)o3)ccc2c1 [compound 17] | 800 | 2000 | 1000 | 700 | 500 | 2000 | 100 | 100 | 93 | – | – | –
N=C(N)Nc1ccc(C(=O)Oc2ccc3cc(C(=N)N)ccc3c2)o1 [Compound No. 3] | 100 | 500 | 900 | 300 | 700 | 300 | 100 | 100 | 99 | – | – | –
N=C(N)c1ccc2cc(OC(=O)c3ccc(CN4CCN(Cc5ccccc5)CC4)o3)ccc2c1 [compound 26] | 300 | 600 | 3000 | 2000 | 500 | 4000 | 100 | 98 | 93 | – | – | –
CNC(=N)Nc1ccc(C(=O)Oc2ccc3cc(C(=N)N)ccc3c2)o1 [compound 5] | 300 | 500 | 500 | 200 | 1000 | 300 | 100 | 100 | 96 | – | – | –
CN(C(=N)N)c1ccc(C(=O)Oc2ccc3cc(C(=N)N)ccc3c2)o1 [compound 4] | 4000 | – | 6000 | 8000 | 2000 | 300 | 100 | 100 | 59 | 42 | – | –
N=C(N)Nc1ccc(C(=O)NCc2ccc(C(=O)Oc3ccc4cc(C(=N)N)ccc4c3)o2)cc1 [compound 15] | 200 | 300 | 400 | 600 | – | 400 | 100 | 100 | 99 | – | 300 | –
N=C(N)NCCc1ccc(C(=O)Oc2ccc3cc(C(=N)N)ccc3c2)o1 [compound 9] | 900 | 6000 | – | 1000 | 400 | 3000 | 100 | 100 | 94 | – | – | 47
N=C(N)c1ccc2cc(OC(=O)c3ccc(CNC(=O)CCOCc4ccccc4)o3)ccc2c1 [compound 18] | 900 | 500 | 500 | 500 | 300 | 3000 | 100 | 100 | 97 | – | – | –
CN=C(NC)NCc1ccc(C(=O)Oc2ccc3cc(C(=N)N)ccc3c2)o1 [Compound No. 2, 6-amidino-2-naphthyl 5-(2,3-dimethyl)guanidinomethyl-furan-2-carboxylate] | 2000 | 800 | – | 900 | 1000 | 1000 | 100 | 100 | 91 | – | – | –
